Columns and labels:
[1] = system: fixed human osteosarcoma U-2 OS cells; test: Labelling of fixed cells, wide-field fluorescence microscopy; assay type: cell-based; conditions: 20 μM, 1 h exposure in PBS, FIG. 2
Procedure: Cells were seeded in a 24 well coverslip bottomed-plate, cultured overnight in McCoys media. 24 or 48 hours later the cells were washed gently with 3×2 mL PBS per well. The PBS was removed and 0.5 mL of 4% paraformaldehyde solution [a 4% paraformaldehyde solution in PBS was made fresh each time from a 16% stock solution (Thermo Fisher Scientific)] was added in each well and cells were incubated for 30 min. The paraformaldehyde was removed and cells were washed 3×2 mL PBS per well. 1 mL of PBS or HEPES was added to each well.
(§1) Before analysis, cells were incubated at 37° C. in the dark for the period designated. Samples were analysed directly without any further washing step. For live cell labelling cells were seeded, plated in a similar way, into a similar multi-well dish for optimal optical performance and could be used across all microscope platforms.
(§2) This basic protocol was the standard for testing the patterns of AAQ agents at 20 μM, compared to 20 μM of DRAQ5 as the benchmark reference (both in terms of cellular location and ability to detect the red fluorescence).
Low resolution wide-field fluorescence microscopy was used to evaluate cell labelling in fixed human osteosarcoma U-2 OS cells. The system was an Axiovert 100 microscope (Carl Zeiss, Welwyn Garden City, UK) ×10 0.3 NA air objective lens and an ORCA-ER CCD camera (Hamamatsu, Reading, UK). Illumination was controlled by a shutter in front of the transmission lamp. Image capture was controlled using Metamorph software. This evaluates the ability of the compounds to label cellular compartments without active uptake or efflux prohibiting delivery into the given cell. Image collection was performed after 1 h of exposure to probes in PBS. The calibration bar represents 50 μm.

2780/cp70 = test: Further tests against cell lines, 2780/cp70; assay type: cell-based; conditions: ratio to A2780
MCP1 = test: Further tests against cell lines, MCP1; assay type: cell-based; conditions: ratio to A2780
Procedure: (§3) Further tests were carried out against A2780, 2780AD and MCP1 cell lines.

[2] = Absorption and fluorescence spectra of compounds in PBS or HEPES; assay type: physicochemical; conditions: for fluorescence emission, 540 nm (Ex in PBS): excited at 540 nm
Procedure: The compounds were exited at 540 nm and at the wavelength of their absorption peak 1 (λ1 nm). The far-red fluorescent DNA dye DRAQ5 was used as reference.
Compounds were dissolved in DMSO (Sigma) to 20 mM stock concentration. DRAQ5 (Biostatus Ltd) was used as a control anthraquinone agent dissolved in deionised water. Working solutions were prepared in PBS (phosphate buffered saline; Sigma) or HEPES (4-(2-hydroxyethyl)-1-piperazineethanesulfonic acid; Sigma) at 20 or 40 μM. Probe solutions (20 μM), respectively in PBS or HEPES, were pipetted into a 1 mL quartz cuvette (Thermo Fisher Scientific). After obtaining baseline spectra in relevant buffer to zero the instrument, absorbance measurements were obtained using a Beckmann Coulter DU 800 UV/Visible spectrophotometer. The excitation wavelengths were scanned from 280 to 800 nm. Fluorescent spectral scans were performed using a Perkin Elmer LS-50B Luminescence spectrophotometer. To obtain emission scans, the excitation wavelength was set accordingly to the maximum values for each agent or another designated excitation wavelength that matches typical laser lines; and the emission wavelength were scanned from 400 nm to 900 nm in 1 nm increments. A Xenon flash lamp was used as the light source, with the lamp energy set to high. For each data point ten measurements were acquired with the photomultiplier tube sensitivity set at 125.
Compounds were excited at a wavelength corresponding to the first absorbance peak 1 (FIG. 1A and FIG. 1B show absorption (line) and fluorescence (dots) spectra of compounds; both are normalised to peak value.

A549 live cells = test: Loading of A549 live cells, wide-field fluorescence microscopy; assay type: cell-based, human; conditions: 20 μM, 30 min incubation, FIG. 3
Procedure: as §1, §2
Low resolution wide-field fluorescence microscopy was used to evaluate cell uptake and localisation of the probe compounds. The system was an Axiovert 100 microscope (Carl Zeiss, Welwyn Garden City, UK) ×10 0.3 NA air objective lens and an ORCA-ER CCD camera (Hamamatsu, Reading, UK). Illumination was controlled by a shutter in front of the transmission lamp. Image capture was controlled using Metamorph software. Human non-small cell lung cancer A549 cell line was used as the cell model to determine whether variation of the probe loading and localisation occurred in cell population sustaining a “side population” (SP) (Smith P J, Wiltshire M, Chappell S C, Cosentino L, Burns P A, Pors K, Errington R J. Kinetic analysis of intracellular Hoechst 33342—DNA interactions by flow cytometry: misinterpretation of side population status? Cytometry A 2013; 83:161-9) with a known capacity to efflux xenobiotic molecules, including the DNA dye Hoechst 33342.
Cells were incubated for 30 min with each compound and then images were collected at a 30 ms exposure time using low resolution wide-field fluorescence microscopy. Using an Axiovert 100 microscope (Carl Zeiss, Welwyn Garden City, UK) ×10 0.3 NA air objective lens and an ORCA-ER CCD camera (Hamamatsu, Reading, UK). Illumination was controlled by a shutter in front of the transmission lamp. Image capture was controlled using Metamorph software. The calibration bar represents 50 μm.

2780AD = test: Further tests against cell lines, 2780AD; assay type: cell-based; conditions: ratio to A2780
Procedure: as §3

U-2 OS cells = test: Confocal laser scanning microscopy (CLSM) localisation analysis; assay type: cell-based, human; conditions: 30 min incubation, Ex 637 nm, Em >665 nm, FIG. 4 and 5
Procedure: Confocal laser scanning microscopy (CLSM) was used to analyse the localisation of compounds BST-100, BST-101 and BST-106 with the U-2 OS cells, as it permitted the acquisition of volume limited optical sections through the cell and media. Excitation (637 nm) and emission (>665 nm) values for the probe analysis were the optimal conditions. The data sets obtained were processed and assembled into a single maximum projection image.
The patterns were analysed after 30 min incubation at different z depths and eliminating the solution background. The nucleus/cytoplasm ratio was calculated to quantify the localisation of the probe per cell.
A Radiance CLSM (BioRad Microscience) was used attached to an inverted Nikon microscope. Image acquisition was performed using excitation (637 nm) and emission (>665 nm) wavelengths. The histogram plot reports the nucleus/cytoplasm index to determine DNA binding in live cells. The calibration bar represents 10 μm.
The compounds BST-108, BST-109 were analysed in the same way.

A549 = test: MTT cellular viability (growth inhibition) assay, A549; assay type: cell-based; conditions: Homo sapiens, 0.25-100 μM, 72 h, Table 3
Procedure: (§4) The viability of A549 or MCF7 in response to compounds was determined using the MTT (3-(4,5-dimethylthiazolyl-2-)-2, 5-diphenyltetrazolium bromide) assay according to the protocol set out in Mosmann T., Rapid colorimetric assay for cellular growth and survival: application to proliferation and cytotoxicity assays. Journal of immunological methods 1983; 65:55-63.
(§5) Initially, cells were seeded into a rounded-bottom 96 well plate (Corning) at six different cell seeding densities (0.5×104, 1×104, 2×104, 3×104, 4×104, and 5×104) per mL of R10 media (cells/mL) in order to optimise the assay and establish the most suitable seeding assay. Concentration of 1×10^4 cells/mL was determined to be the optimum seeding density for both cell lines for 96 h total incubation. A control lane contained supplemented R10 only. The 96 well plates were incubated overnight at 37° C., 5% CO2 and 100% humidity to allow cell adhesion. Cells were then treated respectively with novel AAQs (0.25-100 μM) or growth inhibition (IC50) of compounds of the invention was studied against MCF7 and A549 cancer cell lines. Compounds were tested with a concentration range between 0.25 and 100 μM for 72 h and doxorubicin, as positive cytotoxic control, was tested in parallel at the same doses.

MCF7 = test: MTT cellular viability (growth inhibition) assay, MCF7; assay type: cell-based; conditions: Homo sapiens, 0.25-100 μM, 72 h, Table 3
Procedure: as §4, §5

A549 cells = test: Pulse exposure to probes, time-lapse, reimaged after 72 h; assay type: cell-based, human; conditions: 20 uM for 15 mins, washout, T=72 h
Procedure: In this regard, A549 cells were seeded in a 24 well coverslip bottomed-plate, cultured overnight in McCoys media for 24 or 48 hours. The plates were placed onto an inverted automated microscope, with the capacity for acquiring an image sequence of different wells (therefore exposure to different agent labelling). An Axiovert 100 microscope (Carl Zeiss, Welwyn Garden City, UK) was fitted with an incubator for 37° C./5% CO2 maintenance (Solent Scientific, Portsmouth, UK), and an ORCA-ER CCD camera (Hamamatsu, Reading, UK). Illumination was controlled by a shutter in front of the transmission lamp, and an x, y positioning stage with separate z-focus (Prior Scientific, Cambridge, UK) controlled multi-field acquisition. Image capture was controlled using Metamorph software.
Cells were exposed to a constant dose (0-5 μM) or a pulsed dose of 0 or 20 μM agent for 15 minutes followed by washout with warmed full media.
All images were collected with a ×10 (PH1) apochromat objective lens providing a field size of 500 times 500 microns. In this case a phase contrast image was collected every 30 minutes for 72 hours. Single cell growth and expansion can be tracked over time. The cells were harvested and run through a flow cytometry (typically a FACS Calibur 635 nm excitation/661/16 emission).
A549 cells were loaded with 20 uM BST-101, BST-109 or BST-110 for 15 mins followed by washout. Cells were then time-lapsed and reimaged after T=72 h, as before, […]

| fluorescence emission, 540 nm (Ex in PBS) ([2]; PBS, 20 μM) [nm] | fluorescence emission, λ1 nm (Ex in HEPES) ([2]; excited at absorption peak 1 (λ1), HEPES, 20 μM) [nm] | fluorescence emission, λ1 nm (Ex in PBS) ([2]; excited at absorption peak 1 (λ1), PBS, 20 μM) [nm] | IC50 (A549) [µM] | IC50 (MCF7) [µM] | peak excitation wavelength ([2]; excitation wavelength used for fluorescence spectra of FIG. 1A/1B) [nm] | Structure (SMILES) | fluorescence brightness / background in fixed cells [1] | staining pattern in fixed cells [1] | RF (2780/cp70) | RF (MCP1) (MCP1) | staining pattern in live cells (A549 live cells) | RF (2780AD) | subcellular localisation by CLSM (U-2 OS cells) | cell division and signal retention / location after pulse exposure (A549 cells) |
| --- | --- | --- | --- | --- | --- | --- | --- | --- | --- | --- | --- | --- | --- | --- |
| 690 | 684 | 688 | – | – | – | COC(CNCCNc1ccc(NCCNCC(OC)OC)c2c1C(=O)c1c(O)ccc(O)c1C2=O)OC [BST-200, 1,4-bis((2-((2,2-dimethoxyethyl)amino)ethyl)amino)-5,8-dihydroxyanthracene-9,10-dione] | very bright fluorescence | cytoplasmic staining, good object recognition, and some heterogeneity on nuclear staining | 0.09 | 0.26 | heterogeneity on cytoplasmic load on, with bright fluorescence signal and staining of mitotic figures | 2.9 | – | – |
| 712 | – | – | > 100 | 0.75 | 540 | COC(CCCCNc1ccc(NCCCCC(OC)OC)c2c1C(=O)c1ccccc1C2=O)OC [BST-101, 1,4-Bis(5,5-dimethoxypentylamino)anthracene-9,10-dione] | – | diffuse cytoplasmic staining, with some perinuclear and nucleoli labelling | – | – | heterogeneous cytoplasmic staining | – | low levels of probe in the perinuclear region, with probable overload in Golgi body and large vesicles | dividing, and signal retained in the same membrane compartment as at the start |
| – | – | – | – | – | – | COC(CNCCCCCCNc1ccc(NCCCCCCNCC(OC)OC)c2c1C(=O)c1c(O)ccc(O)c1C2=O)OC [BST-300] | – | – | 0.17 | 0.37 | – | 1.07 | – | – |

From patent US11447638B2, “Acetalanthraquinone derivatives useful for cellular staining” (BIOSTATUS LIMITED, priority 2016, dated 2022)
